In patent US11566007B2, “Ras inhibitors” (Revolution Medicines, Inc., priority 2019, dated 2023):

Tests used:
[1] = tested on: NCI-H358 cells (K-Ras G12C); experiment: Potency assay: pERK in NCI-H358 cells; assay type: cell-based, human; conditions: Homo sapiens, NCI-H358; H358 KRAS G12C; read-out: pERK EC50
Procedure, shortened: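 Compounds are dosed as ten 3-fold dilutions from a 10 mM DMSO stock, in duplicate, and left on cells for 4 h at 37 °C, 5% CO2. Phospho-ERK1/2 is then quantified by AlphaLISA SureFire Ultra or In-Cell Western, and IC50 is derived from a 4-parameter sigmoid against log concentration.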

NCI-H358 (K-Ras G12C) = experiment: CellTiter-Glo cell viability assay, NCI-H358; assay type: cell-based, human; conditions: Homo sapiens, NCI-H358, 120 h, NCI-H358, 5-day treatment; class symbols; read-out: Additional H358 Cell Viability assay data (K-Ras G12C, IC50)
Procedure, shortened: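 Luminescent viability readout on day 5 after direct compound addition to plated cells; plates sat ~30 min at room temperature before reading. Values expressed as percent of mean DMSO signal, curves fit with a four-parameter logistic model.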

K-Ras G12C = K-Ras G12C (Homo sapiens (Human), UniProt P01116+P62937, G12C); experiment: Ras-Raf (BRAF RBD) disruption / FRET / MOA assay, KRAS G12C; assay type: biochemical; conditions: KRAS G12C; Ras-Raf disruption/FRET/MOA assay; read-out: IC50* KRAS G12C FRET data
Chain of K-Ras G12C (P01116-2 other isoform, or with tags, fused parts or gaps G12C): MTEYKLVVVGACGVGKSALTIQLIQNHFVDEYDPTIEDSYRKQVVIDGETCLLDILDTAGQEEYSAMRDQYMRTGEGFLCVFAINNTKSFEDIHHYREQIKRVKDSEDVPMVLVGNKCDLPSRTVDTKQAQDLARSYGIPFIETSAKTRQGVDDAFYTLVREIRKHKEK
Chain of K-Ras G12C (P62937 whole entry): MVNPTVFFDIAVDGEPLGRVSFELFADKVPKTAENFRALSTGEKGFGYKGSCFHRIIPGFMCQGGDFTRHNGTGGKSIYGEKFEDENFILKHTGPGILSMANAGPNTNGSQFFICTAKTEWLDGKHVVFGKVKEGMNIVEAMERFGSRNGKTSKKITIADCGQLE
Procedure, shortened: (§1)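 Ternary complex formation (Ras–compound–cyclophilin A) displacing BRAF RBD, monitored by TR-FRET. Three hours at 25° C with compound (top 30 μM final), then 1.5 h with the labelled antibodies. Lower ratio than DMSO indicates disruption; IC50 reported.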

KRAS G12V = KRAS G12V (Homo sapiens (Human), UniProt P01116+P62937, G12V); experiment: Ras-Raf (BRAF RBD) disruption / FRET / MOA assay, KRAS G12V; assay type: biochemical; conditions: read-out: IC50* KRAS G12V FRET data
Chain of KRAS G12V (P01116-2 other isoform, or with tags, fused parts or gaps G12V): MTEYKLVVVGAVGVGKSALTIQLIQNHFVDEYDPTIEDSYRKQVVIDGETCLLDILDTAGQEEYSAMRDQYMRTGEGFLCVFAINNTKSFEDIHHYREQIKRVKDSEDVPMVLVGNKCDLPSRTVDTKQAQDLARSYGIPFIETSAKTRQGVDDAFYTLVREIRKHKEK
Chain of KRAS G12V (P62937 whole entry): as the sequence (P62937 whole entry) above
Procedure, shortened: as §1

KRAS G13D = KRAS G13D (Homo sapiens (Human), UniProt P01116+P62937, G13D); experiment: Ras-Raf (BRAF RBD) disruption / FRET / MOA assay, KRAS G13D; assay type: biochemical; conditions: read-out: IC50* KRAS G13D FRET data
Chain of KRAS G13D (P01116-2 other isoform, or with tags, fused parts or gaps G13D): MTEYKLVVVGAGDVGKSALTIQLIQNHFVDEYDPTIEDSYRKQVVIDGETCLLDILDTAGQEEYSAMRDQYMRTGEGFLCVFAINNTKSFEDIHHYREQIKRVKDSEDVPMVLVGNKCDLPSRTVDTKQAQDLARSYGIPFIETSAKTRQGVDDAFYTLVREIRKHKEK
Chain of KRAS G13D (P62937 whole entry): as the sequence (P62937 whole entry) above
Procedure, shortened: as §1

Compound | EC50 [1] | IC50 (NCI-H358 (K-Ras G12C)) | IC50 (K-Ras G12C) | IC50 (KRAS G12V) | IC50 (KRAS G13D)
CO[C@@H](C)c1ncccc1-c1c2c3cc(ccc3n1CC(F)(F)F)-c1nc(co1)C[C@H](NC(=O)[C@H](C(C)C)N(C)C(=O)C1(F)CCN(C(=O)C#CC(C)(C)N(C)C)CC1)C(=O)N1CCC[C@H](N1)C(=O)OCC(C)(C)C2 (atropisomer, axis not shown) [Example A578] | < 5000 nM | < 10 nM | < 10 nM | 100 to 1000 nM | 100 to 1000 nM
CCn1c(-c2cccnc2[C@H](C)OC)c2c3cc(ccc31)-c1cccc(c1)C[C@H](NC(=O)[C@@H](CO[C@H]1CCN(C(=O)C#CC(C)(C)N(C)C)C1)C(C)C)C(=O)N1CCC[C@H](N1)C(=O)OCC(C)(C)C2 (atropisomer, axis not shown) [Example A585] | < 5000 nM | < 10 nM | 10 to 100 nM | 1000 to 10000 nM | > 10000 nM
CCn1c(-c2cccnc2[C@H](C)OC)c2c3cc(ccc31)C1=CCCN(C1)C[C@H](NC(=O)[C@H](C(C)C)N(C)C(=O)C1(F)CCN(C(=O)C#CC(C)(C)N(C)C)CC1)C(=O)N1CCC[C@H](N1)C(=O)OCC(C)(C)C2 (atropisomer, axis not shown) [Example A591] | < 5000 nM | < 10 nM | < 10 nM | 100 to 1000 nM | 100 to 1000 nM
CCn1c(-c2cccnc2[C@H](C)OC)c2c3cc(ccc31)-c1cccc(c1)C[C@H](NC(=O)[C@@H](COC1CN(C(=O)C#CC(C)(C)N(C)C(C)C)C1)C(C)C)C(=O)N1CCC[C@H](N1)C(=O)OCC(C)(C)C2 (atropisomer, axis not shown) [Example A599] | < 5000 nM | < 10 nM | < 10 nM | 1000 to 10000 nM | > 10000 nM
CO[C@@H](C)c1ncccc1-c1c2c3cc(ccc3n1CC(F)(F)F)-c1cccc(c1)CN(NC(=O)[C@@H](COC1CN(C(=O)C#CC(C)(C)N(C)C)C1)C(C)C)C(=O)N1CCC[C@H](N1)C(=O)OCC(C)(C)C2 (atropisomer, axis not shown) [Example A601] | < 5000 nM | < 10 nM | < 10 nM | 1000 to 10000 nM | 1000 to 10000 nM
CO[C@@H](C)c1ncccc1-c1c2c3cc(ccc3n1CC(F)(F)F)-c1csc(n1)C[C@H](NC(=O)[C@H](C(C)C)N(C)C(=O)N1CCC3(CC1)CN(C(=O)/C=C/CF)C3)C(=O)N1CCC[C@H](N1)C(=O)OCC(C)(C)C2 (atropisomer, axis not shown) [Example A602] | < 5000 nM | < 10 nM | 10 to 100 nM | 10 to 100 nM | 100 to 1000 nM
C=CC(=O)N1CCOC2(CCN(C(=O)N(C)[C@H](C(=O)N[C@H]3Cc4nc(n(C)n4)-c4ccc5c(c4)c(c(-c4cccnc4[C@H](C)OC)n5CC(F)(F)F)CC(C)(C)COC(=O)[C@@H]4CCCN(N4)C3=O)C(C)C)CC2)C1 (atropisomer, axis not shown) [Example A606] | < 5000 nM | 100 to 1000 nM | 100 to 1000 nM | 100 to 1000 nM | 100 to 1000 nM
C=CC(=O)N1CC2(C1)OCCN2C(=O)N(C)[C@H](C(=O)N[C@H]1Cc2nc(cs2)-c2ccc3c(c2)c(c(-c2cccnc2[C@H](C)OC)n3CC)CC(C)(C)COC(=O)[C@@H]2CCCN(N2)C1=O)C(C)C (atropisomer, axis not shown) [Example A620] | < 5000 nM | < 10 nM | < 10 nM | 100 to 1000 nM | 100 to 1000 nM
CCn1c(-c2cccnc2[C@H](C)OC)c2c3cc(ccc31)-c1cccc(n1)C[C@H](NC(=O)[C@H](C(C)C)N(C)C(=O)N1CCC13CN(C(=O)C#CC(C)(C)N(C)C)C3)C(=O)N1CCC[C@H](N1)C(=O)OCC(C)(C)C2 (atropisomer, axis not shown) [Example A623] | < 5000 nM | 10 to 100 nM | 100 to 1000 nM | 1000 to 10000 nM | 1000 to 10000 nM
CCn1c(-c2cccnc2[C@H](C)OC)c2c3cc(ccc31)-c1csc(n1)C[C@H](NC(=O)C[C@H](C)OC1CN(C(=O)C#CC(C)(C)N(C)C)C1)C(=O)N1CCC[C@H](N1)C(=O)OCC(C)(C)C2 (atropisomer, axis not shown) [Example A637] | < 5000 nM | 10 to 100 nM | 10 to 100 nM | 1000 to 10000 nM | 1000 to 10000 nM
CO[C@@H](C)c1ncccc1-c1c2c3cc(ccc3n1CC(F)(F)F)N1CCO[C@@H](C[C@H](NC(=O)[C@H](C(C)C)N3CC[C@]4(CCN(C(=O)C#CC(C)(C)N(C)C)C4)C3=O)C(=O)N3CCC[C@H](N3)C(=O)OCC(C)(C)C2)C1 (atropisomer, axis not shown) [Example A642] | < 5000 nM | < 10 nM | < 10 nM | 1000 to 10000 nM | 1000 to 10000 nM
CCn1c(-c2cccnc2[C@H](C)OC)c2c3cc(ccc31)N1CCO[C@@H](C[C@H](NC(=O)[C@H](C(C)C)N(C)C(=O)C3(F)CCN(C(=O)C#CC(C)(C)N(C)C)CC3)C(=O)N3CCC[C@H](N3)C(=O)OCC(C)(C)C2)C1 (atropisomer, axis not shown) [Example A647, 1-(4-(dimethylamino)-4-methylpent-2-ynoyl)-N-((2S)-1-(((2^2S,6^3S,4S)-1^1-ethyl-1^2-(2-((S)-1-methoxyethyl)pyridin-3-yl)-10,10-dimethyl-5,7-dioxo-6^1,6^2,6^3,6^4,6^5,6^6-hexahydro-1^1H-8-oxa-2(4,2)-morpholina-1(5,3)-indola-6(1,3)-pyridazinacycloundecaphane-4-yl)amino)-3-methyl-1-oxobutan-2-yl)-4-fluoro-N-methylpiperidine-4-carboxamide] | < 5000 nM | < 10 nM | < 10 nM | 1000 to 10000 nM | 1000 to 10000 nM
C=CC(=O)N1CC[C@]2(C1)OCN([C@H](C(=O)N[C@H]1Cc3cccc(n3)-c3ccc4c(c3)c(c(-c3cccnc3[C@H](C)OC)n4CC)CC(C)(C)COC(=O)[C@@H]3CCCN(N3)C1=O)C(C)C)C2=O (atropisomer, axis not shown) [Example A652] | < 5000 nM | 100 to 1000 nM | 100 to 1000 nM | 1000 to 10000 nM | 1000 to 10000 nM
CCn1c(-c2cccnc2[C@H](C)OC)c2c3cc(ccc31)-c1cc(CF)cc(c1)C[C@H](NC(=O)[C@H](C(C)C)N(C)C(=O)[C@H]1CCN(C(=O)C#CC(C)(C)N(C)C)C1)C(=O)N1CCC[C@H](N1)C(=O)OCC(C)(C)C2 (atropisomer, axis not shown) [Example A658] | < 5000 nM | < 10 nM | < 10 nM | 1000 to 10000 nM | 1000 to 10000 nM
C=CC(=O)N1CC2(CCCN2C(=O)N(C)[C@H](C(=O)N[C@H]2Cc3nc(cs3)-c3ccc4c(c3)c(c(-c3cccnc3[C@H](C)OC)n4CC)CC(C)(C)COC(=O)[C@@H]3CCCN(N3)C2=O)C(C)C)C1 (atropisomer, axis not shown) [Example A667] | < 5000 nM | < 10 nM | < 10 nM | 100 to 1000 nM | 100 to 1000 nM
CCn1c(-c2cccnc2[C@H](C)OC)c2c3cc(ccc31)-c1cc(CF)cc(c1)C[C@H](NC(=O)[C@H](C(C)C)N1CC[C@]3(CCN(C(=O)C#CC(C)(C)N(C)C)C3)C1=O)C(=O)N1CCC[C@H](N1)C(=O)OCC(C)(C)C2 (atropisomer, axis not shown) [Example A673] | < 5000 nM | < 10 nM | < 10 nM | 100 to 1000 nM | 1000 to 10000 nM
CCn1c(-c2cccnc2[C@H](C)OC)c2c3cc(ccc31)-c1cccc(c1)C[C@H](NC(=O)[C@H](C(C)C)N(C)C(=O)C1(F)CCN(C(=O)/C=C/CN(C)C)CC1)C(=O)N1CCC[C@H](N1)C(=O)OCC(C)(C)C2 (atropisomer, axis not shown) [Example A685] | < 5000 nM | < 10 nM | 10 to 100 nM | 100 to 1000 nM | 100 to 1000 nM
CO[C@@H](C)c1ncccc1-c1c2c3cc(ccc3n1CC(F)(F)F)-c1cccc(c1)C[C@H](NC(=O)[C@H](C(C)C)N1CC[C@]3(CCN(C(=O)C#CC(C)(C)N(C)C)C3)C1=O)C(=O)N1CCC[C@H](N1)C(=O)OCC(C)(C)C2 (atropisomer, axis not shown) [Example A689] | < 5000 nM | < 10 nM | < 10 nM | 1000 to 10000 nM | 1000 to 10000 nM
CCn1c(-c2cccnc2[C@H](C)OC)c2c3cc(ccc31)-c1csc(n1)C[C@H](NC(=O)[C@H](C(C)C)N(C)C(=O)N(C)C1CN(C(=O)/C=C/C3CN(C)C3)C1)C(=O)N1CCC[C@H](N1)C(=O)OCC(C)(C)C2 (atropisomer, axis not shown) [Example A690] | < 5000 nM | 100 to 1000 nM | 100 to 1000 nM | 1000 to 10000 nM | 100 to 1000 nM
CO[C@@H](C)c1ncccc1-c1c2c3cc(ccc3n1CC(F)(F)F)-c1cccc(c1)C[C@H](NC(=O)[C@@H](COC1CN(C(=O)C#CC3(C)OCCO3)C1)C(C)C)C(=O)N1CCC[C@H](N1)C(=O)OCC(C)(C)C2 (atropisomer, axis not shown) [Example A703] | < 5000 nM | 10 to 100 nM | 10 to 100 nM | 1000 to 10000 nM | > 10000 nM
